# In US5698529A, “Chemotherapeutic compositions” (Supratek Pharma, Inc., priority 1996, dated 1997):
# Read-outs that look alike come from different tables or passages of the source.
# How the values were obtained:
# SKVO3 cells = assay: cells; type: cell-based; settings: Homo sapiens
# Description: (§1) The antineoplastic agent vinblastine is incorporated into the block copolymer mixture described in Example 3.
# (§2) The antineoplastic agent mitomycin C is incorporated into the block copolymer mixture described in Example 3.
# (§3) The antineoplastic agent methotrexate is incorporated into the block copolymer mixture described in Example 3.
# (§4) The antineoplastic agent daunorubicin is incorporated into the block copolymer mixture described in Example 3.
# SKVLB cells = assay: cells; type: cell-based; settings: Homo sapiens
# Description: as §1, §2, §3, §4
# [1] = SKVO3, drug-sensitive, read-out: IC50
SMILES,IC50 (SKVO3 cells; [1]),IC50 (SKVO3 cells),IC50 (SKVLB cells)
"CN(Cc1cnc2nc(N)nc(N)c2n1)c1ccc(C(=O)N[C@@H](CCC(=O)O)C(=O)O)cc1 [free methotrexate, methotrexate]",1.09 µg/mL,,
"CO[C@@]12[C@H](COC(N)=O)C3=C(C(=O)C(C)=C(N)C3=O)N1C[C@@H]1N[C@@H]12 [free mitomycin, mitomycin C]",,0.32 µg/mL,1.12 µg/mL
"CC[C@]1(O)C[C@@H]2CN(CCc3c([nH]c4ccccc34)[C@@](C(=O)OC)(c3cc4c(cc3OC)N(C)[C@H]3[C@@](O)(C(=O)OC)[C@H](OC(C)=O)[C@]5(CC)C=CCN6CC[C@]43[C@@H]65)C2)C1 [free vinblastine, vinblastine]",0.095 µg/mL,,0.615 µg/mL
